These results are taken from US11124506B2, “Salts and crystal forms of diaza-benzofluoranthrene compounds” (HARBIN PHARMACEUTICAL GROUP CO., LTD. GENERAL …, priority 2016, dated 2021).

The target of the assay is T1, PDE1A (Homo sapiens, UniProt P54750).
T1 construct: purchased SignalChem
In words: In vitro detection of phosphodiesterase (PDE), fluorescence polarization detection of AMP/GMP production. It is filed as biochemical. The settings on record: human enzyme (SignalChem), cAMP or cGMP substrate, Ca2+-calmodulin cofactor; read-out: IC50 values measured by PDE1 detection: PDE1. As for the experimental part:
Experimental Example 1: The In Vitro Detection of Phosphodiesterase (PDE)
Principle of the Experiment:
The assay measures PDE1A enzyme activity based on fluorescence polarization detection of AMP/GMP production. The principle of the reaction is to replace the binding of AMP/GMP to its antibody by AlexaFluor 633 labeled AMP/GMP.
Reaction buffer: 10 mM Tris-HCl, pH=7.5, 5 mM magnesium chloride, 0.01% Brij 35, 1 mM DTT, and 1% DMSO;
Enzyme substrate: […] cAMP or cGMP (Ca^2+-calmodulin as a cofactor of PDE1A);
Transcreener® AMP2/GMP2 antibody;
AMP2/GMP2 AlexaFluor 633 marker.
Experimental Procedures and Methods:
1. Human enzyme to be tested (purchased from SignalChem) and the substrate were diluted with a freshly prepared reaction buffer.
2. An enzyme solution (concentration: 3 pM) was added to the wells of a reaction plate.
3. […]
7. The following devices were used for detection: EnVision (PerkinElmer), Cy5FP Ex FP 620, Em S-pol 688/P-pol 688, FP mirror D658fp/D688; fluorescence polarization was detected using Ex/Em 620/688.
Enzymatic activity corresponding to the FP signal was retrieved in an AMP/GMP standard curve using DMSO as a control in an Excel table. […] An analysis was performed using GraphPad Prism and IC50 values were calculated.

On to `CC[C@@]12C=C(c3nc(C)no3)n3c4c(c5ccccc53)CCN(CCC1)[C@H]42` [Compound 1], for which the IC50 is 1 to 20 µM.

What is called IC50 is the concentration that gives 50% inhibition.
